#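 Compound exposure: 48 hours, 5 concentrations, 96-well plates. GI50: concentration for 50% inhibition of growth.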 Calls of active or inactive are those of the source. Rule as the data show it: active = GI50 up to about 1.1 µM and inactive = higher.
# What was measured:
# Assay in all cases: NCI anticancer screen, dose series, 48 h
# 786-0 = test system: 786-0
# A498 = test system: A498
# A549 = test system: A549
# ACHN = test system: ACHN
# CAKI-1 = test system: CAKI-1
# CCRF-CEM = test system: CCRF-CEM
# COLO 205 = test system: COLO 205
# DLD-1 = test system: DLD-1
# DMS-114 = test system: DMS-114
# DMS-273 = test system: DMS-273
# EKVX = test system: EKVX
# HCC 2998 = test system: HCC 2998
# HCT-116 = test system: HCT-116
# HCT-15 = test system: HCT-15
# HL-60 = test system: HL-60
# HOP-18 = test system: HOP-18
# HOP-62 = test system: HOP-62
# HT-29 = test system: HT-29
# IGROV-1 = test system: IGROV-1
# K562 = test system: K562
# KM-20L2 = test system: KM-20L2
# KM12 = test system: KM12
# LOX IMVI = test system: LOX IMVI
# LXFL 529 = test system: LXFL 529
# M14 = test system: M14
# M19-MEL = test system: M19-MEL
# MOLT-4 = test system: MOLT-4
# Malme-3M = test system: Malme-3M
# NCI-H226 = test system: NCI-H226
# NCI-H23 = test system: NCI-H23
# NCI-H460 = test system: NCI-H460
# NCI-H522 = test system: NCI-H522
# OVCAR-3 = test system: OVCAR-3
# OVCAR-4 = test system: OVCAR-4
# OVCAR-5 = test system: OVCAR-5
# OVCAR-8 = test system: OVCAR-8
# RXF 393 = test system: RXF 393
# SF-268 = test system: SF-268
# SF-295 = test system: SF-295
# SK-MEL-28 = test system: SK-MEL-28
# SK-MEL-2 = test system: SK-MEL-2
# SK-MEL-5 = test system: SK-MEL-5
# SK-OV-3 = test system: SK-OV-3
# SN12C = test system: SN12C
# SNB-19 = test system: SNB-19
# SNB-75 = test system: SNB-75
# SR = test system: SR
# SW-620 = test system: SW-620
# TK-10 = test system: TK-10
# U-251 = test system: U-251
# UACC-257 = test system: UACC-257
# UACC-62 = test system: UACC-62
# UO-31 = test system: UO-31
# BT-549 = test system: BT-549
# DU-145 = test system: DU-145
# HOP-92 = test system: HOP-92
# Hs-578T = test system: Hs-578T
# MCF7 = test system: MCF7
# MDA-MB-231 = test system: MDA-MB-231
# MDA-MB-435 = test system: MDA-MB-435
# MDA-N = test system: MDA-N
# NCI/ADR-RES = test system: NCI/ADR-RES
# PC-3 = test system: PC-3
# RPMI-8226 = test system: RPMI-8226
# SF-539 = test system: SF-539
# SNB-78 = test system: SNB-78
# T47D = test system: T47D
smiles,measurement,setting,value
O=c1c2ccc3cccc4c(=O)cc(c5ccccc15)-c2c34,GI50,786-0,> 100 µM (inactive)
same,GI50,A498,> 100 µM (inactive)
same,GI50,A549,> 100 µM (inactive)
same,GI50,ACHN,> 100 µM (inactive)
same,GI50,CAKI-1,> 100 µM (inactive)
same,GI50,CCRF-CEM,> 100 µM (inactive)
same,GI50,COLO 205,> 100 µM (inactive)
same,GI50,DLD-1,> 100 µM (inactive)
same,GI50,DMS-114,32 µM (inactive)
same,GI50,DMS-273,> 100 µM (inactive)
same,GI50,EKVX,> 100 µM (inactive)
same,GI50,HCC 2998,> 100 µM (inactive)
same,GI50,HCT-116,> 100 µM (inactive)
same,GI50,HCT-15,> 100 µM
same,GI50,HL-60,43.9 µM (inactive)
same,GI50,HOP-18,22.7 µM (inactive)
same,GI50,HOP-62,> 100 µM (inactive)
same,GI50,HT-29,> 100 µM (inactive)
same,GI50,IGROV-1,> 100 µM (inactive)
same,GI50,K562,54.5 µM (inactive)
same,GI50,KM-20L2,> 100 µM (inactive)
same,GI50,KM12,> 100 µM (inactive)
same,GI50,LOX IMVI,29.2 µM (inactive)
same,GI50,LXFL 529,29.6 µM (inactive)
same,GI50,M14,> 100 µM (inactive)
same,GI50,M19-MEL,20.3 µM (inactive)
same,GI50,MOLT-4,59.2 µM (inactive)
same,GI50,Malme-3M,30.5 µM (inactive)
same,GI50,NCI-H226,> 100 µM (inactive)
same,GI50,NCI-H23,31.7 µM (inactive)
same,GI50,NCI-H460,> 100 µM (inactive)
same,GI50,NCI-H522,76.9 µM (inactive)
same,GI50,OVCAR-3,28.2 µM (inactive)
same,GI50,OVCAR-4,> 100 µM (inactive)
same,GI50,OVCAR-5,> 100 µM (inactive)
same,GI50,OVCAR-8,28.6 µM (inactive)
same,GI50,RXF 393,> 100 µM (inactive)
same,GI50,SF-268,> 100 µM (inactive)
same,GI50,SF-295,> 100 µM (inactive)
same,GI50,SK-MEL-28,> 100 µM (inactive)
same,GI50,SK-MEL-2,22 µM (inactive)
same,GI50,SK-MEL-5,57.4 µM (inactive)
same,GI50,SK-OV-3,> 100 µM (inactive)
same,GI50,SN12C,> 100 µM (inactive)
same,GI50,SNB-19,> 100 µM (inactive)
same,GI50,SNB-75,> 100 µM (inactive)
same,GI50,SR,> 100 µM (inactive)
same,GI50,SW-620,> 100 µM (inactive)
same,GI50,TK-10,> 100 µM (inactive)
same,GI50,U-251,45.4 µM (inactive)
same,GI50,UACC-257,> 100 µM (inactive)
same,GI50,UACC-62,> 100 µM (inactive)
same,GI50,UO-31,> 100 µM (inactive)
COC1(OC)C2(Cl)C(Cl)=C(Cl)C1(Cl)C1c3ccc(C(C)=O)c4cccc(c34)C12 (centres undefined),GI50,786-0,45.7 µM (inactive)
same,GI50,A498,14.3 µM (inactive)
same,GI50,A549,23 µM (inactive)
same,GI50,ACHN,19 µM (inactive)
same,GI50,BT-549,47.6 µM (inactive)
same,GI50,CAKI-1,> 37.4 µM (inactive)
same,GI50,CCRF-CEM,13.8 µM (inactive)
same,GI50,COLO 205,12.8 µM (inactive)
same,GI50,DMS-114,15.9 µM (inactive)
same,GI50,DMS-273,3.89 µM (inactive)
same,GI50,DU-145,26.2 µM (inactive)
same,GI50,EKVX,41.6 µM (inactive)
same,GI50,HCC 2998,10.2 µM (inactive)
same,GI50,HCT-116,6.47 µM (inactive)
same,GI50,HCT-15,6.24 µM
same,GI50,HL-60,4.42 µM (inactive)
same,GI50,HOP-18,> 100 µM (inactive)
same,GI50,HOP-62,63.4 µM (inactive)
same,GI50,HOP-92,2.89 µM (inactive)
same,GI50,HT-29,5.24 µM (inactive)
same,GI50,Hs-578T,> 100 µM (inactive)
same,GI50,IGROV-1,> 94.6 µM (inactive)
same,GI50,K562,6.38 µM (inactive)
same,GI50,KM-20L2,4.53 µM (inactive)
same,GI50,KM12,11.7 µM (inactive)
same,GI50,LOX IMVI,22.5 µM (inactive)
same,GI50,LXFL 529,25.6 µM (inactive)
same,GI50,M14,11.9 µM (inactive)
same,GI50,M19-MEL,25.6 µM (inactive)
same,GI50,MCF7,5.5 µM (inactive)
same,GI50,MDA-MB-231,9.73 µM (inactive)
same,GI50,MDA-MB-435,7.67 µM (inactive)
same,GI50,MDA-N,14.8 µM (inactive)
same,GI50,MOLT-4,5.47 µM (inactive)
same,GI50,Malme-3M,12.3 µM (inactive)
same,GI50,NCI-H226,17 µM (inactive)
same,GI50,NCI-H23,7.16 µM (inactive)
same,GI50,NCI-H460,14.5 µM (inactive)
same,GI50,NCI-H522,13.3 µM (inactive)
same,GI50,NCI/ADR-RES,36.6 µM (inactive)
same,GI50,OVCAR-3,26.3 µM (inactive)
same,GI50,OVCAR-4,27.9 µM (inactive)
same,GI50,OVCAR-5,28.6 µM (inactive)
same,GI50,OVCAR-8,48.6 µM (inactive)
same,GI50,PC-3,14.2 µM (inactive)
same,GI50,RPMI-8226,5.82 µM (inactive)
same,GI50,RXF 393,27.7 µM (inactive)
same,GI50,SF-268,61.1 µM (inactive)
same,GI50,SF-295,26 µM (inactive)
same,GI50,SF-539,64 µM (inactive)
same,GI50,SK-MEL-28,42.8 µM (inactive)
same,GI50,SK-MEL-2,17.3 µM (inactive)
same,GI50,SK-MEL-5,10.4 µM (inactive)
same,GI50,SK-OV-3,52.1 µM (inactive)
same,GI50,SN12C,10.6 µM (inactive)
same,GI50,SNB-19,> 59 µM (inactive)
same,GI50,SNB-75,25.9 µM (inactive)
same,GI50,SNB-78,28.3 µM (inactive)
same,GI50,SR,13.7 µM (inactive)
same,GI50,SW-620,> 53.6 µM (inactive)
same,GI50,T47D,20.8 µM (inactive)
same,GI50,TK-10,71 µM (inactive)
same,GI50,U-251,30.3 µM (inactive)
same,GI50,UACC-257,25.6 µM (inactive)
same,GI50,UACC-62,23.5 µM (inactive)
same,GI50,UO-31,27.5 µM (inactive)
